Measurements published in article PMC10484922, “Discovery of a selective and biologically active low-molecular weight antagonist of human interleukin-1β” (Nature Communications, 2023).
Several values for one entry are separate records, joined by “and”; a condition that tells them apart may be missing. Equal values may be shown once. Entries after “also recorded” stand apart in the source; their conditions may differ. Read-outs that look alike come from different tables or passages of the source.

Assays:
[1] = test system: HEK-Blue IL-1β cells stimulated with hIL-1β; experiment: HEK293 reporter gene assay, hIL-1β as trigger; assay type: cell-based, human; parameters: RGA HEK293, average / RGA HEK293, curve fit: unit not given here; details: for RGA HEK293, average / RGA HEK293, curve fit: per experiment
Description: We used HEK-Blue™ IL-1β cells that respond specifically to IL-1 (# hkb-il1b, InvivoGen). These cells can detect IL-1α and IL-1β, as these cytokines bind to the same receptor, IL-1R1. They express a Seap reporter gene under the control of the IFN-β minimal promoter fused to five NF-kappaB and five AP-1 binding sites. Thirty microliters (300,000 cells/ml) per well of a 384-well plate were plated overnight. Cells were then stimulated with graded concentrations of cytokines (hIL-1α or hIL-1β) in the absence or presence of canakinumab (Ilaris®, ILARI LYVI 150MG 22GLW.012, batch U003 0409)[22], anakinra (Kineret®, 100 mg/0.67 ml injectable solution, Sobi)[23], or compound (S)-2 (compounds were pre-mixed for 1 h with the cytokine prior to addition to cells) and further incubated overnight before assessment of Seap activity.

[2] = test system: CHO IL-36R reporter cell line stimulated with IL-36γ; experiment: NanoBiT reporter assay, CHO IL-36R cells, IL-36γ driven; assay type: cell-based; parameters: average: scale not given here
Description: (§1) Reporter cell system for NanoBiT assay
(§2) CHO IL-36R or CHO IL-1R1 reporter cell lines, prepared internally (Klemens Ka u p ma n n ), based on tagged IL-1RAcP and Myd88 proteins using the NanoBiT complementation system, were seeded at a densi ty of 10’000 cells/well in 30 µL of OptiMEM + 0.1 % FCS medium using 384-well plates (white, TCT), for 24 hours.
(§3) Before the treatment, the medium was removed, 20 µL of NanoGlo substrate, (#N2012, Pr o me g a ) were added to the wells. Following substrate addi ti on, 240 nL of compound were added to the wells using an ECH O dispenser device. Then, 3.76 µL of the ligand IL-36g (Novartis) at 200 ng/mL end concentration or recombinant IL-1b (Novartis) at 500 pg/mL end concentration were added to the mix. Luminescence was measured at 405 nm after 30 min incubation (Pherastar reader). […]

[3] = test system: CHO IL-1R1 reporter cell line stimulated with IL-1β; experiment: NanoBiT reporter assay, CHO IL-1R1 cells, IL-1β driven; assay type: cell-based; parameters: average: scale not given here; details: for average: IL-1beta
Description: as §1, §2, §3

Cc1ccc2c(c1)NC(=O)[C@@]2(c1cn[nH]c1)c1cc(-c2ccc(C(=O)O)cc2C(=O)O)ccc1O [Compound (S)-2]
reporter activity induced by hIL-1β [1]: efficiently inhibited the reporter activity induced by hIL-1β
RGA HEK293, average ([1]; 3.125 uM): 29.4705 and 28.9635 and 25.1151 and 32.9049 and 27.4138 and 39.0499 and 38.2996 and 37.0235
RGA HEK293, curve fit ([1]; 3.125 uM): 30.4654 and 27.1823 and 20.8299 and 28.629 and 26.4966 and 33.5898 and 33.5814 and 32.8647
RGA HEK293, average ([1]; 6.25 uM): 54.0943 and 50.2167 and 45.7315 and 52.6564 and 46.7509 and 54.9517 and 53.8737 and 52.9197
RGA HEK293, curve fit ([1]; 6.25 uM): 53.4932 and 49.1303 and 45.443 and 53.6627 and 46.4685 and 55.6955 and 53.7771 and 53.2389
RGA HEK293, average ([1]; 12.5 uM): 72.3524 and 70.9823 and 68.0128 and 77.9349 and 67.4822 and 74.7182 and 71.0369 and 70.438
RGA HEK293, curve fit ([1]; 12.5 uM): 72.9412 and 71.3657 and 68.2903 and 76.9195 and 67.593 and 75.1363 and 72.2128 and 71.5012
RGA HEK293, average ([1]; 25 uM): 87.2975 and 85.2654 and 82.5363 and 87.9606 and 82.8729 and 86.3527 and 84.3067 and 83.9822
RGA HEK293, curve fit ([1]; 25 uM): 85.8483 and 86.5666 and 83.9461 and 90.5811 and 83.387 and 87.7879 and 85.1743 and 84.4134
RGA HEK293, average ([1]; 50 uM): 94.5457 and 94.2398 and 91.9589 and 95.03 and 93.0282 and 93.3172 and 89.9086 and 89.6999
RGA HEK293, curve fit ([1]; 50 uM): 93.0784 and 94.3616 and 92.5512 and 96.5403 and 92.3805 and 94.467 and 92.6851 and 92.0672
RGA HEK293, average ([1]; 100 uM): 97.772 and 97.6887 and 95.147 and 97.9006 and 96.9482 and 94.6055 and 95.59 and 95.4988
RGA HEK293, curve fit ([1]; 100 uM): 96.7406 and 97.7627 and 96.7045 and 98.7877 and 96.7132 and 97.5984 and 96.5496 and 96.1302
IC50 ([1]; Homo sapiens, hIL-1β, read-out: RGA HEK293 IC50): 5.3 ± 0.3 µM
IC50 ([1]; Homo sapiens, source data, read-out: RGA HEK293 IC50, individual experiments): 4.15 µM
IC50 ([1]; source data, read-out: RGA HEK293 IC50, individual experiments): 6.4 µM and 5.37 µM and 5.67 µM and 6.98 µM and 4.84 µM and 5.05 µM and 4.72 µM
IL-36γ-driven NanoBiT reporter activity [2]: without effect on IL-36g-driven activity; also recorded: no inhibitory activity
average ([2]; IL-36, EXP1, conc 0.00610352 uM): -8.032
average ([2]; IL-36, EXP1, conc 0.012207 uM): -2.7959
average ([2]; IL-36, EXP1, conc 0.0244141 uM): -4.066
average ([2]; IL-36, EXP1, conc 0.0488281 uM): -1.337
average ([2]; IL-36, EXP1, conc 0.0976562 uM): -10.0933
average ([2]; IL-36, EXP1, conc 0.195312 uM): -6.363
average ([2]; IL-36, EXP1, conc 0.390625 uM): -11.0347
average ([2]; IL-36, EXP1, conc 0.78125 uM): -4.52
average ([2]; IL-36, EXP1, conc 1.5625 uM): -4.793
average ([2]; IL-36, EXP1, conc 3.125 uM): -8.376
average ([2]; IL-36, EXP1, conc 6.25 uM): -1.775
average ([2]; IL-36, EXP1, conc 12.5 uM): -2.393
average ([2]; IL-36, EXP1, conc 25 uM): -11.2956
average ([2]; IL-36, EXP1, conc 50 uM): -8.608
average ([2]; IL-36, EXP1, conc 100 uM): 2.894
average ([2]; IL-36, EXP2, conc 0.00610352 uM): -0.8565
average ([2]; IL-36, EXP2, conc 0.012207 uM): -0.8771
average ([2]; IL-36, EXP2, conc 0.0244141 uM): 16.4182
average ([2]; IL-36, EXP2, conc 0.0488281 uM): -7.751
average ([2]; IL-36, EXP2, conc 0.0976562 uM): 10.3597
average ([2]; IL-36, EXP2, conc 0.195312 uM): 5.839
average ([2]; IL-36, EXP2, conc 0.390625 uM): 4.392
average ([2]; IL-36, EXP2, conc 0.78125 uM): 8.396
average ([2]; IL-36, EXP2, conc 1.5625 uM): 12.4114
average ([2]; IL-36, EXP2, conc 3.125 uM): 6.063
average ([2]; IL-36, EXP2, conc 6.25 uM): 0.8781
average ([2]; IL-36, EXP2, conc 12.5 uM): 10.8339
average ([2]; IL-36, EXP2, conc 25 uM): 7.445
average ([2]; IL-36, EXP2, conc 50 uM): 10.4408
average ([2]; IL-36, EXP2, conc 100 uM): 12.6091
average ([2]; IL-36, EXP3, conc 0.00610352 uM): 2.096
average ([2]; IL-36, EXP3, conc 0.012207 uM): -6.441
average ([2]; IL-36, EXP3, conc 0.0244141 uM): 4.8088
average ([2]; IL-36, EXP3, conc 0.0488281 uM): -5.951
average ([2]; IL-36, EXP3, conc 0.0976562 uM): -4.784
average ([2]; IL-36, EXP3, conc 0.195312 uM): -4.89
average ([2]; IL-36, EXP3, conc 0.390625 uM): -47.4888
average ([2]; IL-36, EXP3, conc 0.78125 uM): -7.151
average ([2]; IL-36, EXP3, conc 1.5625 uM): -6.215
average ([2]; IL-36, EXP3, conc 3.125 uM): -8.634
average ([2]; IL-36, EXP3, conc 6.25 uM): -10.5486
average ([2]; IL-36, EXP3, conc 12.5 uM): -5.26
average ([2]; IL-36, EXP3, conc 25 uM): -17.1151
average ([2]; IL-36, EXP3, conc 50 uM): -4.192
average ([2]; IL-36, EXP3, conc 100 uM): -4.987
IL-1β-driven NanoBiT reporter activity [3]: inhibited the reporter activity driven
average ([3]; EXP1, conc 0.00610352 uM): -2.539
average ([3]; EXP1, conc 0.012207 uM): 1.596
average ([3]; EXP1, conc 0.0244141 uM): -3.451
average ([3]; EXP1, conc 0.0488281 uM): 3.112
average ([3]; EXP1, conc 0.0976562 uM): 2.615
average ([3]; EXP1, conc 0.195312 uM): -0.4746
average ([3]; EXP1, conc 0.390625 uM): 9.543
average ([3]; EXP1, conc 0.78125 uM): 7.593
average ([3]; EXP1, conc 1.5625 uM): 13.469
average ([3]; EXP1, conc 3.125 uM): 26.7566
average ([3]; EXP1, conc 6.25 uM): 37.1219
average ([3]; EXP1, conc 12.5 uM): 46.91
average ([3]; EXP1, conc 25 uM): 52.2595
average ([3]; EXP1, conc 50 uM): 56.8016
average ([3]; EXP1, conc 100 uM): 68.8694
average ([3]; EXP2, conc 0.00610352 uM): -2.716
average ([3]; EXP2, conc 0.012207 uM): 3.9057
average ([3]; EXP2, conc 0.0244141 uM): -3.335
average ([3]; EXP2, conc 0.0488281 uM): 6.501
average ([3]; EXP2, conc 0.0976562 uM): 5.016
average ([3]; EXP2, conc 0.195312 uM): 1.522
average ([3]; EXP2, conc 0.390625 uM): 11.9124
average ([3]; EXP2, conc 0.78125 uM): 10.8854
average ([3]; EXP2, conc 1.5625 uM): 17.5198
average ([3]; EXP2, conc 3.125 uM): 31.5581
average ([3]; EXP2, conc 6.25 uM): 41.289
average ([3]; EXP2, conc 12.5 uM): 51.7241
average ([3]; EXP2, conc 25 uM): 56.0031
average ([3]; EXP2, conc 50 uM): 59.3287
average ([3]; EXP2, conc 100 uM): 71.2739
average ([3]; EXP3, conc 0.00610352 uM): 1.19
average ([3]; EXP3, conc 0.012207 uM): 3.77
average ([3]; EXP3, conc 0.0244141 uM): 3.912
average ([3]; EXP3, conc 0.0488281 uM): 4.68
average ([3]; EXP3, conc 0.0976562 uM): -1.021
average ([3]; EXP3, conc 0.195312 uM): 3.354
average ([3]; EXP3, conc 0.390625 uM): 4.389
average ([3]; EXP3, conc 0.78125 uM): 9.349
average ([3]; EXP3, conc 1.5625 uM): 13.3994
average ([3]; EXP3, conc 3.125 uM): 22.0107
average ([3]; EXP3, conc 6.25 uM): 30.3621
average ([3]; EXP3, conc 12.5 uM): 43.476
average ([3]; EXP3, conc 25 uM): 49.8685
average ([3]; EXP3, conc 50 uM): 57.8931
average ([3]; EXP3, conc 100 uM): 64.0514
